From US20240416143A1, “PHOTONIC ANTIMICROBIAL WOUND SURFACE DRESSING” (The General Hospital Corporation, priority 2021, published 2024)

Legend:
[1] = UV-Vis absorption spectroscopy of menadione; type: physicochemical
Experimental: Stock solutions of menadione (10 mg/mL) were prepared in DMSO only and in DMSO/Tween (1:1) to improve the solubility. Different concentrations of menadione were prepared to make a calibration curve by diluting the stock solution in PBS so that the final solution was either 1% DMSO or 1% DMSO/Tween. The absorbance spectra were measured using an Evolution™ 300 UV-Vis Spectrophotometer (Thermo Scientific, Waltham, Massachusetts, USA). The calibration curve was measured, and molar absorption coefficient calculated.
Thus, we dissolved the menadione in two conditions: in PBS containing either 1% DMSO or 1% DMSO/Tween80 at 400 μM. Tween 80 is a surfactant and the idea is to mix with the DMSO before to add to PBS is due to necessity to improve the solubility of menadione in aqueous solution. We measured the absorption spectrum in both conditions to analyze if there is any change in optical properties. The range of wavelength absorption of menadione was measured between 200-800 nm (see FIG. 12B) to choose the optimum wavelength of the light absorption spectra. […] The maximum wavelength of absorption found was 340 nm for both conditions. […] The molar absorptivity coefficient was compared in different wavelength according with the Table 1.

E. coli = test: Photoinactivation of planktonic cultures by menadione + antimicrobial blue light; type: cell-based, Escherichia coli ATCC 25922; details: menadione ⅛ MIC + aBL 90 J/cm^2 (50 mW/cm^2), 405 nm
Experimental: The bacterial cells were grown in BHI broth medium shaken overnight. Cells were collected by centrifugation at 4,000 rpm for 5 minutes and suspended in PBS at a density of 10^8 colony-forming units (CFU)/mL (estimated by measuring the optical density at 600 nm; O.D 0.1=10^8 cells/mL). The microbial suspension in PBS was transferred to a 35×12-mm dish and mixed with different concentrations of menadione: 0, 0.5, 1 and 2 μg/mL for MRSA USA300, AF003 and IQ0064; 0, 1, 10 and 30 μg/mL for P. aeruginosa PA01; and 0, 16, 32, 64 and 128 μg/mL for E. coli ATCC 25922. After incubation in the dark at 25° C. for 1 hour, the planktonic suspension of cells at room temperature was irradiated using aBL (405 nm) at 50 mW/cm^2 with different radiant exposures (0-250 J/cm^2). During the aBL irradiation, 40 μL of samples were withdrawn every 15 minutes, and the CFUs were determined by 10-fold serial dilutions in PBS (10-1 to 10-7 dilution factors), plated on BHI agar plates as described previously [Ref. 17]. CFUs were counted after overnight incubation at 37° C. Experiments were performed in triplicate.

MRSA [2] = test: General ROS by DCFH-DA assay in bacteria; type: cell-based, methicillin-resistant Staphylococcus aureus
Experimental: (§1) 1.2.9.1 General ROS measured by […] (DCFH-DA) assay: DCF-DA was purchased from Thermofisher. […] The production of ROS by menadione when combined with blue light was measured in the presence and absence of bacteria. The bacteria (MRSA) was grown in BHI broth medium with shaking overnight. Cells were collected by centrifugation at 4,000 rpm for 5 minutes and resuspended in PBS in the stationary growth phase culture of 1×10^8 CFU/mL. The microbial suspension was transferred to a 35×12-mm dish, mixed with 10 μg/mL of menadione, and stained with 10 μM DCFH-DA solution per the manufacturer's instruction. The solutions (with and without bacteria) were irradiated with the blue light at 50 mW/cm^2 and the samples were collected every 15 minutes to be analyzed by Microplate Spectrofluorometer (SPECTRAmax®, Molecular Devices, USA) at λex=495 nm and λem=525 nm. The control and the menadione/dark groups were generated under the same conditions without irradiation.
We investigated the possibility that minocycline and doxycycline might be acting as a photosensitizer. To do so, the production of ROS by minocycline and doxycycline combined with blue light was measured by the ROS probe DCF in MRSA. From FIG. 28, it can be observed that each of minocycline and doxycycline when combined with blue light at 405 nm produced ROS.

MRSA [3] = test: Singlet oxygen assay (SOSG) in bacteria; type: cell-based, methicillin-resistant Staphylococcus aureus; details: 10 μg/mL menadione, 200 J/cm^2
Experimental: 1.2.9.2 Singlet oxygen ^1O2 assay: The singlet oxygen was measured by Singlet Oxygen Sensor Green Reagent (SOSG) (Thermofisher). In the presence of singlet oxygen, SOSG emits a green fluorescence similar to that of fluorescein (excitation/emission maxima ˜504/525 nm). The MRSA were grown in BHI broth medium with shaking overnight. Cells were collected by centrifugation at 4,000 rpm for 5 minutes and resuspended in PBS in the stationary growth phase culture of 1×10^8 CFU/mL. The microbial suspension was transferred to a 35×12-mm dish, mixed with 10 μg/mL of menadione, and stained with 10 μM SOSG solution per the manufacturer's instruction. The bacteria were irradiated with the blue light at 50 mW/cm^2 and the samples were collected each 15 minutes to be analyzed by Microplate Spectrofluorometer (SPECTRAmax®, Molecular Devices, USA) at λex=504 nm and λem=525 nm. The control and the menadione/dark groups were generated under the same conditions without irradiation.

[4] = ROS probes (DCF-DA, SOSG, HPF) in the absence of bacteria
Experimental: as §1
To do so, the production of ROS by menadione combined with blue light was measured by different ROS probes, DCF-DA, SOSG and HPF, in the presence and absence of MRSA. […] Oxidation of these probes can be detected by monitoring the increasing of fluorescence signals. […]

NorA efflux pump = NorA efflux pump (Staphylococcus aureus, UniProt P0A0J7); details: cited from earlier work
Chain of NorA efflux pump (P0A0J7 whole entry): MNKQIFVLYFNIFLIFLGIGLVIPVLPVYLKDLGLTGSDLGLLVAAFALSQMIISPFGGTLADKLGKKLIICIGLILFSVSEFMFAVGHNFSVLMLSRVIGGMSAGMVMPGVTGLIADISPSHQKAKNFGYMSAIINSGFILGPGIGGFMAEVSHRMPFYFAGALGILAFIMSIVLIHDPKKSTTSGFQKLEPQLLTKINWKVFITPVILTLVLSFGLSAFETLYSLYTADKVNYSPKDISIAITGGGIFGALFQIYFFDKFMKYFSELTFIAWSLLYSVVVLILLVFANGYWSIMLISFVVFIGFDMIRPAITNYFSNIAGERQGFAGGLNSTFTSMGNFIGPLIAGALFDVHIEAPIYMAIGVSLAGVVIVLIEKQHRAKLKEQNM

NLRP3 inflammasome = NLRP3 inflammasome (Homo sapiens, UniProt Q96P20); details: cited from earlier work
Chain of NLRP3 inflammasome (Q96P20 whole entry): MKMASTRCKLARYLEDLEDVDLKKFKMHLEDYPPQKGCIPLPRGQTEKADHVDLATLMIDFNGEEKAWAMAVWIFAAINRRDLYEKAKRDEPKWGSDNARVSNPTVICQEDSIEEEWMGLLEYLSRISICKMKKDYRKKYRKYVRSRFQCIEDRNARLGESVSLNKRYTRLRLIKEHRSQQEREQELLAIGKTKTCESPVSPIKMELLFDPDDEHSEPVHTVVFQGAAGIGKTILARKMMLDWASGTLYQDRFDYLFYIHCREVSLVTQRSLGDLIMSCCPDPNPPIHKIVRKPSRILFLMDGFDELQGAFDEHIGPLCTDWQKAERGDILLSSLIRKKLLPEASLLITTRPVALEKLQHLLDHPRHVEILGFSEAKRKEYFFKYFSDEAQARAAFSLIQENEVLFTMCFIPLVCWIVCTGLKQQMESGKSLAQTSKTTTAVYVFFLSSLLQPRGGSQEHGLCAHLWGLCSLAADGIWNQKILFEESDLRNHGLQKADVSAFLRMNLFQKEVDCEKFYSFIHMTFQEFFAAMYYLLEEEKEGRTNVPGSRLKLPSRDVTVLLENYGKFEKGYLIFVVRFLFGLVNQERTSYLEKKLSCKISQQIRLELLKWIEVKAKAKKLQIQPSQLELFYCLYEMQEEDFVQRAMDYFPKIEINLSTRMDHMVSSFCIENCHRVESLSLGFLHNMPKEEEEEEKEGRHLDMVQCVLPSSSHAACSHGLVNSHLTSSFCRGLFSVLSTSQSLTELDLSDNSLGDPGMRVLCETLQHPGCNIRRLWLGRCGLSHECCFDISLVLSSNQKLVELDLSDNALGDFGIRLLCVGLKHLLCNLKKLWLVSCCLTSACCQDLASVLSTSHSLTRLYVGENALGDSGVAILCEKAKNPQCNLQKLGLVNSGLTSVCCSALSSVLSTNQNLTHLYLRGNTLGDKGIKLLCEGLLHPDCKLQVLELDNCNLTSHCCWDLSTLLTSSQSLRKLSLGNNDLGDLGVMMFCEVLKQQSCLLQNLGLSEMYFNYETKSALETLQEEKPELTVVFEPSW

**Q.** For `CC1=CC(=O)c2ccccc2C1=O` [menadione, 2-methyl-1,4-naphthoquinone], which “maximum wavelength of absorption” value ([1]; 400 μM in PBS with 1% DMSO or 1% DMSO/Tween80, both conditions) is on record?
**A.** Its value is 340 nm.

**Q.** What about the “ε, molar absorptivity coefficient, λ = 340 nm” value ([1]; 1% DMSO in PBS) of the same compound?
**A.** The value was 2458 L/mol/cm.

**Q.** And the “ε, molar absorptivity coefficient, λ = 380 nm” value ([1]; 1% DMSO in PBS)?
**A.** The value was 572.1 L/mol/cm.

**Q.** What about the “ε, molar absorptivity coefficient, λ = 405 nm” value ([1]; 1% DMSO in PBS) of the same compound?
**A.** The value was 128.82 L/mol/cm.

**Q.** And the “ε, molar absorptivity coefficient, λ = 340 nm” value ([1]; 1% DMSO/Tween in PBS)?
**A.** The value was 2064 L/mol/cm.

**Q.** What about the “ε, molar absorptivity coefficient, λ = 380 nm” value ([1]; 1% DMSO/Tween in PBS) of the same compound?
**A.** The value was 410.31 L/mol/cm.

**Q.** And the “ε, molar absorptivity coefficient, λ = 405 nm” value ([1]; 1% DMSO/Tween in PBS)?
**A.** Its value is 113.85 L/mol/cm.

**Q.** And the “eradication by aBL combined with menadione” value (E. coli)?
**A.** Its value is 6 log10.

**Q.** What about the “production of ROS measured by DCF, menadione+aBL vs aBL alone” value (MRSA [2]; MRSA, 10 μg/mL menadione, 180 J/cm^2) of the same compound?
**A.** Its value is “two times higher”.

**Q.** And the “ROS generation in bacteria by menadione in the dark” value (MRSA [2]; absolute dark)?
**A.** The value was “does not appear to generate significant ROS”.

**Q.** And the “increase of total ROS, menadione combined with aBL” value (MRSA [2]; bacteria, menadione + aBL)?
**A.** The value was 2.5 fold.

**Q.** What about the “singlet oxygen (SOSG), menadione+aBL vs aBL alone” value (MRSA [3]) of the same compound?
**A.** The value was 1.5 times.

**Q.** What about the “fluorescence signal of ROS probes, menadione exposed to blue light” value ([4]; 405 nm, DCF-DA, SOSG, HPF) of the same compound?
**A.** Its value is “higher fluorescence signal”.

**Q.** And the “fluorescence signal of ROS probes, menadione dark group” value ([4]; no irradiation)?
**A.** The value was “negligible”.

**Q.** What about the “inhibition of efflux pump gene expression and efflux pump function” value (NorA efflux pump) of the same compound?
**A.** Its value is “significant inhibition”.

**Q.** What about the “inhibition of NLRP3 inflammasome” value (NLRP3 inflammasome) of the same compound?
**A.** The value was “selective, potent inhibitor”.
